IC50 data for 1 compound are collected here from article PMC4917657, “SP6616 as a new Kv2.1 channel inhibitor efficiently promotes β-cell survival involving both PKC/Erk1/2 and CaM/PI3K/Akt signaling pathways” (Cell Death & Disease, 2016).

This assay has as its system T1, Kv2.2.
T1 construct: gene KCNB2
Briefly: channel inhibition in CHO cells transfected with pcDNA3.1a-Kv2.[…] (Supplementary Figure […]). Type of assay: cell-based.

For orientation: IC50 means the point on the concentration scale where inhibition reaches its midpoint. In the case of `CCOC(=O)C1=C(C)N=c2sc(=Cc3ccc(O)c(OC)c3)c(=O)n2C1c1ccc(OC)c(OCC)c1` (stereo not shown) [SP6616, ethyl 5-(3-ethoxy-4-methoxyphenyl)-2-(4-hydroxy-3-methoxybenzylidene)-7-methyl-3-oxo-2,3-dihydro-5H-[1,3]thiazolo[3,2–a]pyrimidine-6-carboxylate], the midpoint of inhibition, the IC50, lay at 13.5 µM.
